For data set [1], the target named is CDK6/cyclin D3 (Homo sapiens, UniProt Q00534). Briefly: Inhibition of full length recombinant human CDK6/CyclinD3 co-expressed by baculovirus in Sf9 insect cells using histone H1 as substrate by ADP-glo kinase assay.
Data set [2] concerns MDA-MB-231. Description: cells. Particulars: Homo sapiens, MDA-MB-231, 72 h.
Description: Antiproliferative activity against human MDA-MB-231 cells assessed as cell viability incubated for 72 hrs by MTT assay
Data set [3] concerns BT-549. Description: cells. The following applies: Homo sapiens, BT-549, 72 h.
Description: Antiproliferative activity against human BT-549 cells assessed as cell viability incubated for 72 hrs by MTT assay
Data set [4] in a line: in vitro. The following applies: human, liver microsomes.
Data set [5] in a line: in vitro. Particulars: human, MCF-10A cells.
Description: Antiproliferative activity against human MCF-10A cells assessed as cell viability incubated for 72 hrs by MTT assay
Data set [6] relates to BT-549. Briefly: Antiproliferative activity against human BT-549 cells assessed as cell viability incubated for 72 hrs in presence of Palbociclib by MTT assay. It counts as functional, cell-based. Particulars: BT-549, 72 h.
Data set [7] is described as follows: in vitro. Particulars: human, liver microsomes. This is another data set of the same source.
Description: Metabolic stability in human liver microsome assessed as intrinsic clearance
The nature of data set [8]: Antiproliferative activity against human MCF-10A cells assessed as cell viability incubated for 72 hrs in presence of Palbociclib by MTT assay. In kind it is toxicity, cell-based.
The test system of data set [9] is MDA-MB-231. Briefly: Antiproliferative activity against human MDA-MB-231 cells assessed as cell viability incubated for 72 hrs in presence of Palbociclib by MTT assay. Particulars: MDA-MB-231, 72 h. It counts as functional, cell-based.
The subject of data set [10] is MDA-MB-231. Description: Antitumor activity against human MDA-MB-231 cells xenografted in BALB/c nude mouse assessed as tumor growth inhibition at 50 mg/kg, ip administered for 21 days. Particulars: MDA-MB-231, 504 h, read-out: TGI.
In data set [11] the target is T1, Bromodomain-containing protein 2 (Homo sapiens, UniProt P25440).
Description: Inhibition of BRD2 BD2 (unknown origin)
Data set [12] deals with CDK9/cyclin T1 (Homo sapiens) (UniProt O60563+P50750). Particulars: dose 500.0 nM.
Description: Inhibition of CDK9/cyclinT1 (unknown origin) at 500 nM relative to control
Data set [13] concerns the target T1, Bromodomain-containing protein 2. The source holds these as a separate data set.
Description: Inhibition of BRD2 BD1 (unknown origin)

Bounds are passed on as bounds.

CDK6/cyclin D3, sequence (P30281 whole entry): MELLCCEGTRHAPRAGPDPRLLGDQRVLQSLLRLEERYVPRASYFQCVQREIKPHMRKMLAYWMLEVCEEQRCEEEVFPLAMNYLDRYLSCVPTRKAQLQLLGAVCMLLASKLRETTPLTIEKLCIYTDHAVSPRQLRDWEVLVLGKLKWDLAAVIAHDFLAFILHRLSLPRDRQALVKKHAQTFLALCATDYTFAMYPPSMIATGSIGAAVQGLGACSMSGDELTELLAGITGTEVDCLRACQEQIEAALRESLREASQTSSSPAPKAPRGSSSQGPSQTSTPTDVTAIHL
CDK6/cyclin D3, sequence (Q00534 whole entry): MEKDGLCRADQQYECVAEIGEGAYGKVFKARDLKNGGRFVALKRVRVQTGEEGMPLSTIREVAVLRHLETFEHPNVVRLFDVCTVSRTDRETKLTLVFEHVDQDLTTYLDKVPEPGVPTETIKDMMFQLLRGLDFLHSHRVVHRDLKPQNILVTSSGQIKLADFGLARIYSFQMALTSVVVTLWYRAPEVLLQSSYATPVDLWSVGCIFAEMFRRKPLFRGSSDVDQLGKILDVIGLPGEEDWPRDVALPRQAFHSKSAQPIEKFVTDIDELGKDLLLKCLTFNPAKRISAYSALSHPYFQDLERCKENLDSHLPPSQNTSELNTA
T1 sequence (P25440 whole entry): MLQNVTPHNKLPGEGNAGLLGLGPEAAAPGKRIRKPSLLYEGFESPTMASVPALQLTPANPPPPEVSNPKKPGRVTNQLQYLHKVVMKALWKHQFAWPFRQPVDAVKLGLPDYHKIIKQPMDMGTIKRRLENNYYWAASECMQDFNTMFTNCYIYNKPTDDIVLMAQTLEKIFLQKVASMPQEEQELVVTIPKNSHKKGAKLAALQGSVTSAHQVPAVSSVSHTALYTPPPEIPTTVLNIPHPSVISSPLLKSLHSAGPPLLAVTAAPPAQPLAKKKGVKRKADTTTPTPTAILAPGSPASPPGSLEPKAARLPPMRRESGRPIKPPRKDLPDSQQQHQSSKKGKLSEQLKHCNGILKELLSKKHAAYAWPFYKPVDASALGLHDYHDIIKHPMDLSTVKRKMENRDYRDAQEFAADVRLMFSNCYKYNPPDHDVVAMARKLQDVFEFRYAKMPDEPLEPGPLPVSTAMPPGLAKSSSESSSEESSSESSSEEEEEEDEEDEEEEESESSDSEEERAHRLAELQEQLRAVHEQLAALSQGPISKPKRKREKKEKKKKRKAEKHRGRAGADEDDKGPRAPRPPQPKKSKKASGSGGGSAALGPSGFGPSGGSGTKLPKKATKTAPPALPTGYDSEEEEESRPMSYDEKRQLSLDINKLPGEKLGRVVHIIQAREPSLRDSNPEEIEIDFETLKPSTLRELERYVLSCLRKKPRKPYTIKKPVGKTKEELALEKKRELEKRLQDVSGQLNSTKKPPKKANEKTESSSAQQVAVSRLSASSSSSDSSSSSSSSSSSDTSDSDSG

On to `COc1cc(OC)c2c(=O)[nH]c(-c3ccc(C(=O)N4CCCC(CNc5ncc6c(C)cc(=O)n(C7CCCC7)c6n5)C4)cc3)nc2c1` (stereo not drawn), for which the IC50 in [1] turned out to be 0.297 µM.
Take `Cc1sc2c(c1C)C(c1ccc(Cl)cc1)=N[C@@H](CC(=O)OC(C)(C)C)c1nnc(C)n1-2`: the IC50 in [2] was 6.44 µM; in data set [3], 5.06 µM; in data set [6], 1.05 µM; in data set [9], 1.72 µM. For the same molecule, the half-life in [4] was 35.4 min. The IC50 at 72 h in [5] and in data set [8] was greater than 20 µM throughout. Also, the microsomal CLint in data set [7] was 39.5 µL/min/mg. In addition, in data set [10], the inhibition in vivo at 50 mg/kg stood at 37.6%.
Take `COc1cc(OC)c2c(=O)[nH]c(-c3ccc(C(=O)N4CC5(CCN(c6ncc7c(C)cc(=O)n(C8CCCC8)c7n6)CC5)C4)cc3)nc2c1`: the IC50 in [1] was 0.036 µM; in [11] it was greater than 1 µM; in data set [13] it was greater than 1 µM. The molecule also gave an inhibition in data set [12] of 43.4%.
For `CC(=O)c1c(C)c2cnc(Nc3ccc(N4CCNCC4)cn3)nc2n(C2CCCC2)c1=O` [PALBOCICLIB], the IC50 in [2] stood at 16.3 µM; in data set [3], 15.3 µM. The molecule further registered an IC50 at 72 h in [5] greater than 20 µM. Also, the inhibition in vivo at 50 mg/kg in [10] stood at 22%.

Source of the values: ChEMBL document CHEMBL6083283, “Discovery of Dual CDK6/BRD4 Inhibitor Inducing Apoptosis and Increasing the Sensitivity of Ferroptosis in Triple-Negative Breast Cancer” (J Med Chem, 2024).
